Test results: PMC11009956, “Initial Primer Synthesis of a DNA Primase Monitored by Real-Time NMR Spectroscopy” (Journal of the American Chemical Society, 2024)

Columns and labels:
functional pRN1 primase [1] = target: T1, functional pRN1 primase (Saccharolobus islandicus, UniProt Q54324); experiment: […] CP-MAS solid-state NMR; 1H-detected hNH NMR; format: biochemical; conditions: formed in situ from ATP^N and dGTP^C on primase-DNA complex; triphosphate remains bound to HBD
T1 construct: primase part (catalytic domain plus HBD), residues 40-370, monomeric, expressed in E. coli BL21(DE3) Codon+, Ni2+ IMAC purified (tag not described)

[2] = target: T2, helix-bundle domain (HBD) of pRN1 primase (Saccharolobus islandicus, UniProt Q54324); experiment: 1H-15N HSQC NMR titration; format: binding; conditions: 10 mM MgCl2, pH 7.0, 298 K
T2 construct: helix-bundle domain, residues 256-370, expressed in E. coli BL21(DE3) Codon+, Ni2+ IMAC purified (tag not described)

functional pRN1 primase [3] = target: T3, functional pRN1 primase (Saccharolobus islandicus, UniProt Q54324, H145A); experiment: […] CP-MAS solid-state NMR; format: binding; conditions: catalytically inactive mutant; primase-DNA complex with ATP^N; 10 mM MgCl2, pH 7.0
T3 construct: primase part (catalytic domain plus HBD), residues 40-370, monomeric, expressed in E. coli BL21(DE3) Codon+, Ni2+ IMAC purified (tag not described)

[4] = target: T2, helix-bundle domain (HBD) of pRN1 primase; experiment: 1H-15N HSQC NMR; format: binding; conditions: HBD-DNA complex
functional pRN1 primase [5] = target: T1, functional pRN1 primase; experiment: […] CP-MAS solid-state NMR; format: biochemical; conditions: primase-DNA complex with ATP^N; 10 mM MgCl2, pH 7.0, 281 K; bound by HBD, slow substrate
functional pRN1 primase [6] = target: T1, functional pRN1 primase; experiment: time-resolved solution NMR of dinucleotide formation; format: biochemical; conditions: primase-DNA complex
functional pRN1 primase [7] = target: T1, functional pRN1 primase; experiment: […] CP-MAS solid-state NMR; 1H-15N HSQC NMR; format: biochemical; conditions: primase-DNA complex with dGTP^C; 10 mM MgCl2, pH 7.0; slow substrate
[8] = target: T4, catalytic domain of pRN1 primase (Saccharolobus islandicus, UniProt Q54324); experiment: 1H-15N HSQC NMR titration; format: binding; conditions: free catalytic domain, no DNA; 10 mM MgCl2, pH 7.0, 298 K; near active site (V148, S150)
T4 construct: catalytic domain, residues 40-248, expressed in E. coli BL21(DE3) Codon+, Ni2+ IMAC purified (tag not described)

[9] = target: T5, pRN1 primase (functional primase) (Sulfolobus islandicus (plasmid pRN1), UniProt Q54324 40-370); experiment: NMR (1H-15N HSQC; 31P CP-MAS); ATPC + dGTPC; HBD titrations: 25 mM sodium phosphate pH 7.0, 75 mM NaCl, 10 mM MgCl2, 298 K, 0.1 mM HBD, HBD:DNA 1:1.1; solid-state NMR on sedimented complex at 278-309 K; conditions: protein: recombinant; single strand
T5 sequence: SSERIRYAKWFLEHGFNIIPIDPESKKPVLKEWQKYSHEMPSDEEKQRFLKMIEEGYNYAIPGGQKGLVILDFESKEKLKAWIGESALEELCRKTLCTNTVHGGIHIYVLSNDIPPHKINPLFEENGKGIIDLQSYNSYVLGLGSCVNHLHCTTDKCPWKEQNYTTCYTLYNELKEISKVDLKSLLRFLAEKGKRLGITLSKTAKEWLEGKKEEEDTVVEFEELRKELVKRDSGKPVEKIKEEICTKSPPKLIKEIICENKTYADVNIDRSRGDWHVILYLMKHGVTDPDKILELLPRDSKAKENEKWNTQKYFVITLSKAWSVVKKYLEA

[10] = target: T6, pRN1 primase helix-bundle domain (HBD) (Sulfolobus islandicus (plasmid pRN1), UniProt Q54324 256-370); experiment: NMR (1H-15N HSQC); ATP + dGTP, 10 mM Mg2+, 298 K; HBD titrations: 25 mM sodium phosphate pH 7.0, 75 mM NaCl, 10 mM MgCl2, 298 K, 0.1 mM HBD, HBD:DNA 1:1.1; solid-state NMR on sedimented complex at 278-309 K; conditions: protein: recombinant; single strand
T6 sequence: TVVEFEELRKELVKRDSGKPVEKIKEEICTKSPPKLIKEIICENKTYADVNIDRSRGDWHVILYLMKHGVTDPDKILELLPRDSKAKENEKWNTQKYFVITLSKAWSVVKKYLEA

pRN1 primase H145A = target: T7, pRN1 primase H145A (Sulfolobus islandicus (plasmid pRN1), UniProt Q54324 40-370, H145A); experiment: solid-state NMR (31P CP-MAS, hNH); ATPN + dGTPC, Mg2+; HBD titrations: 25 mM sodium phosphate pH 7.0, 75 mM NaCl, 10 mM MgCl2, 298 K, 0.1 mM HBD, HBD:DNA 1:1.1; solid-state NMR on sedimented complex at 278-309 K; conditions: protein: recombinant; single strand
T7 sequence: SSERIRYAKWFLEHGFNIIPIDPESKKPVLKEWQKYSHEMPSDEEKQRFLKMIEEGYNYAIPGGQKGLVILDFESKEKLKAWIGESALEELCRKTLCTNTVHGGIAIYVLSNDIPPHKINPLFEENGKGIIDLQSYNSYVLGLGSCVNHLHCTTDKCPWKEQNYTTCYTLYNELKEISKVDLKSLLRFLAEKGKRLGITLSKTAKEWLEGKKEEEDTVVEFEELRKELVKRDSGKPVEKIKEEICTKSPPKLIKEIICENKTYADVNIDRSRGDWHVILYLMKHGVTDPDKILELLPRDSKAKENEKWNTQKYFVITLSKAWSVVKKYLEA

For Nc1nc2c(ncn2[C@H]2C[C@H](O)[C@@H](COP(=O)(O)O[C@H]3[C@@H](O)[C@H](n4cnc5c(N)ncnc54)O[C@@H]3COP(=O)(O)OP(=O)(O)NP(=O)(O)O)O2)c(=O)[nH]1, the “31P CP-MAS solid-state NMR; 1H-detected hNH NMR” value (functional pRN1 primase [1]) was “We attribute this initial increase to dinucleotide formation and subsequent binding to pRN1 primase”.

Nc1nc2c(ncn2[C@@H]2O[C@H](COP(=O)(O)OP(=O)(O)OP(=O)(O)O)[C@@H](O)[C@H]2O)c(=O)[nH]1 [GTP] was tested, and the “1H-15N HSQC NMR titration” value ([2]; HBD-DNA complex with ATP) was “it could bind to the HBD domain in the same manner as for the dGTP substrate”.

For Nc1nc2c(ncn2[C@H]2C[C@H](O)[C@@H](COP(=O)(O)OP(=O)(O)CP(=O)(O)O)O2)c(=O)[nH]1 [dGTP^C], the “31P CP-MAS solid-state NMR” value (functional pRN1 primase [3]) was “wt primase and the mutant H145A bound to DNA^CT, ATP^N and dGTP^C”, the “1H-15N HSQC NMR” value ([4]; added together with ATP^C) was “both ATP^C and dGTP^C were rapidly added to the HBD-DNA^CT complex” and the “31P CP-MAS solid-state NMR” value (functional pRN1 primase [5]) was “The isolated resonances of bound dGTP^C decrease in the solid state”.

For Nc1ncnc2c1ncn2[C@@H]1O[C@H](COP(=O)(O)OP(=O)(O)OP(=O)(O)O)[C@@H](O)[C@H]1O [ATP], the “1H-15N HSQC NMR titration” value ([2]; HBD-DNA complex, two ATP bound) was “The data reveal that HBD binds one ATP and one dGTP” and the “time-resolved solution NMR of dinucleotide formation” value (functional pRN1 primase [6]; co-substrate dGTP) was “dinucleotide formation with the cognate NTPs was terminated within several minutes”.

Nc1ncnc2c1ncn2[C@@H]1O[C@H](COP(=O)(O)OP(=O)(O)CP(=O)(O)O)[C@@H](O)[C@H]1O [ATP^C] was tested, and the “1H-15N HSQC NMR” value ([4]; added together with dGTP^C) was “both ATP^C and dGTP^C were rapidly added to the HBD-DNA^CT complex” and the “31P CP-MAS solid-state NMR; 1H-15N HSQC NMR” value (functional pRN1 primase [7]) was “indeed showing the bound dGTP^C and ATP^C as well as the DNA”.

With Nc1ncnc2c1ncn2[C@H]1C[C@H](O)[C@@H](COP(=O)(O)OP(=O)(O)OP(=O)(O)O)O1 [dATP] the “1H-15N HSQC NMR titration” value [8] was “addition of dATP to the catalytic domain resulted in visible CSPs of V148 and S150”.

Nc1nc2c(ncn2[C@H]2C[C@H](O)[C@@H](COP(=O)(O)OP(=O)(O)OP(=O)(O)O)O2)c(=O)[nH]1 [dGTP] was tested, and the “1H-15N HSQC NMR titration” value ([2]; HBD-DNA complex with ATP, displaces one ATP) was “titration of dGTP in a solution of HBD-DNA^CT-2ATP led to the substitution of one ATP” and the “time-resolved solution NMR of dinucleotide formation” value (functional pRN1 primase [6]; co-substrate ATP) was “active primase bound to DNA^CT and the cognate NTPs (ATP and dGTP)”.

B1: DNACT (GTG-motif template) (ssDNA)
DNA: CTGTGCTCA
B1: binds [9]; binds [10]; binds (pRN1 primase H145A).
